Test [1] deals with rat hepatocyte cells. Description: 14C-acetate incorporation into saponified and non-saponified lipids in hepatocytes. The class given is cell-based. The following applies: 30 μM; 14C-acetate labeling 4 hr; relative to vehicle control. How it is done: Washout buffer containing; 149 mM sodium chloride, 9.2 mM sodium N-2-hyroxyethylpiperazine-N′-2-ethanesulfonic acid, 1.7 mM fructose, 0.5 mM EGTA, 10 U/mL heparin at pH 7.5 and digestion buffer containing; 6.7 mM potassium chloride, 143 mM sodium chloride, 9.2 mM sodium N-2-hyroxyethylpiperazine-N′-2-ethanesulfonic acid, 5 mM calcium chloride-dihydrate, 1.7 mM fructose, 0.2% bovine serum albumin, 100 U/mL collagenase Type I, 93 U/mL Hyaluronidase, 160 BAEE/mL trypsin inhibitor at pH 7.5 were prepared. Solutions were oxygenate prior to perfusion. Wash buffer containing Dulbecco's Modified Eagle Medium (DMEM) containing 4.5 gm/L D-glucose, 2 mM GlutMax-1, 0.2% BSA, 5% fetal bovine serum (FBS), […], 1.2 μM hydrocortisone and DMEM+HS solution containing DMEM, 2 mM GlutMax-1, 20 nM delta-antinolevulinic acid, 17.4mM MEM non-essential amino acids, 20% FBS, 12 nM insulin and 1.2 μM hydrocortisone was prepared. DMEM solution containing DMEM, 2 mM GlutMax-1, 20 nM delta-aminolevulinic acid and 17.4 mM MEM non-essential amino acids were prepared. Male Sprague-Dawley rats weighing 125-250 gms were maintained on a standard rodent chow diet and freely given water. On the evening prior to cell isolation, selected healthy animals were fed restricted. […] The cell concentration was determined in several fields on the hemocytometer. […]

Test [2] concerns obese female Zucker rats. Nature of the test: Two weeks of daily oral gavage treatment in chow-fed obese female Zucker rats. Conditions: 100 mg/kg daily oral gavage; for ratio of HDL/non-HDL cholesterol: pretreatment 2.70; for increase of total serum cholesterol: vs pretreatment. It counts as in vivo, rat. As for the experimental part: Dosing vehicle of Compound A (100 mg/kg) was administered to 9-10 week old female obese Zucker rats (i.e. the fa/fa or leptin receptor deficient rat) daily for 14 days in the morning by oral gavage in 1.5 percent carboxymethylcellulose/0.2 percent […]. Tail vein blood for glucose determinations (without anesthesia) and orbital blood samples for serum (with anestehesia for all other determinations) were obtained following a 6 hour fast prior to the initial dose and after one and two weeks of dosing.
Blood serum were assayed for insulin, non-esterified fatty acids, […], total cholesterol, and triglycerides (FIG. 2). Glucose was determined in whole blood (Table 1). Blood serum was also used to produce lipoprotein cholesterol profiles (FIG. 2), and used to determine VLDL plus LDL cholesterol combined (also referred to as apoB containing lipoprotein cholesterol or non-HDL cholesterol), HDL cholesterol, and the ratio of HDL cholesterol to that of VLDL plus LDL cholesterol (FIG. 2). In addition, the effect of Compound A on weight gain after 14 days and the liver to body weight ratio at sacrifice are shown in FIG. 2.

As for `CC(C)(CO)CCCC[S+]([O-])CCCCC(C)(C)CO` [Compound A, 6-(5,5-Dimethyl-6-hydroxy-hexane-1-sulfinyl)-2,2-dimethyl-hexan-1-ol], in test [1], the “reduction of rate of non-saponifiable lipid synthesis” value was 54% and the “reduction of rate of saponifiable lipid synthesis” value worked out at 25%. In addition, the “blood glucose levels, pretreatment versus posttreatment” value in test [2] (after one and two weeks, 6 hour fast) is “similar”. Moreover, in test [2] (after one week of treatment), the “increase in HDL cholesterol” value was determined as 2.2 fold, the “increase of non-HDL cholesterol (VLDL plus LDL cholesterol)” value stood at 38%, the “reduction of serum triglycerides” value is 48% and the “ratio of HDL/non-HDL cholesterol” value turned out to be 3.84. Besides, the “increase of total serum cholesterol” value in test [2] (after one week of treatment) amounted to 98%. In addition, in test [2] (after two weeks of treatment), the “increase in HDL cholesterol” value was determined as 3.1 fold, the “increase of non-HDL cholesterol (VLDL plus LDL cholesterol)” value amounted to 62%, the “reduction of serum triglycerides” value turned out to be 42% and the “ratio of HDL/non-HDL cholesterol” value was determined as 4.97. For the same compound, in test [2] (after two weeks of treatment), the “increase of total serum cholesterol” value is reported as 74%. In test [2] (after two weeks, elevated from 2.35 pretreatment), the “serum β-hydroxy butyrate” value worked out at 3.94 mg/dL. The “serum non-esterified fatty acids” value in test [2] (after two weeks, reduced from 2.28 pretreatment) worked out at 0.74 mmol/L.

(Values after patent US6673780B2, “Sulfoxide and bis-sulfoxide compounds and compositions for cholesterol management and related uses” (Esperion Therapeutics, Inc., priority 2000, dated 2004).)
